Where a name gives a salt, the structure may show the parent alone.
What was measured:
[1] = biological target: T1, Recombinant human IKKβ (residues 1-737) (Homo sapiens, UniProt O14920); assay: IKK2 assay (TR-FRET); assay type: biochemical; details: ATP 1 μM final, read-out: pIC50 against IKK2 (converted)
T1 construct: Recombinant human IKKβ (residues 1-737); GST (C); made in house
T1 sequence (O14920 1-737): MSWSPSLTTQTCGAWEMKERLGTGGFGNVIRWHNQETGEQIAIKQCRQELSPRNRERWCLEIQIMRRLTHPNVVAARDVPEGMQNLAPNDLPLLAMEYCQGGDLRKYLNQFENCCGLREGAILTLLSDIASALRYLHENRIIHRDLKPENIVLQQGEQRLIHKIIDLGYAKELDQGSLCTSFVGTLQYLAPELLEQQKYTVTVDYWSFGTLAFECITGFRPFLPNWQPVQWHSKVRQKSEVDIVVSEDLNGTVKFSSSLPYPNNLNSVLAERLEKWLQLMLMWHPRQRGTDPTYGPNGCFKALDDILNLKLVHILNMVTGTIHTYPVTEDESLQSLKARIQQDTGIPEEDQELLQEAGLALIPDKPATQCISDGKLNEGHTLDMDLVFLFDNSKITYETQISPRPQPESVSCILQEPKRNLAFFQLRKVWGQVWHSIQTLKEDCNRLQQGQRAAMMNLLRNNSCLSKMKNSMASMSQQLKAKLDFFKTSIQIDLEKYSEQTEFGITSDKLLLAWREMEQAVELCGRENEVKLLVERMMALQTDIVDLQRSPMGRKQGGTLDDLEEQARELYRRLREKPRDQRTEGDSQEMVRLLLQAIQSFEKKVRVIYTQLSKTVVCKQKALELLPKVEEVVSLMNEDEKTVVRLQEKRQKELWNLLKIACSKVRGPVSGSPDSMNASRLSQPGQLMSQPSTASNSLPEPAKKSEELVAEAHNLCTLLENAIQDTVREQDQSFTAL
Procedure, shortened: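 Baculovirus-expressed C-terminal GST-tagged IKKβ (0.5-5 nM final) in HEPES pH 7.4, MgCl2, CHAPS, DTT, BSA with 1.7% DMSO; 25 nM GST-IB substrate and 1 μM ATP, 15 min at room temperature. EDTA stop; phospho-Ser32/36 detected by Eu-antibody/APC-anti-GST TR-FRET, 665/620 nm ratio.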

[2] = tested on: human monocyte stimulated cytokine production (TNF-α); assay: Monocyte assay (LPS-stimulated TNF-α production); assay type: cell-based; details: for IC50: 24 h, 200 ng/mL LPS, TNF-α by ELISA; for inhibition at 0.3 µM: read-out: inhibition at 300 nM in the monocyte assay
Procedure, shortened: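 Human CD14+ monocytes were purified from blood and plated at 1×10^6 cells/mL in RPMI 1640 with 10% FBS. Compound was added 30 min before stimulation with 200 ng/mL LPS (0.1% DMSO final), followed by 24 hrs at 37 C. Supernatant TNF-α was measured by ELISA, and viability by trypan blue exclusion.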

Row | Structure (SMILES) | IC50 [1] | IC50 [2] | inhibition at 0.3 µM [2]
1 | CCS(=O)(=O)N1CCC(c2c[nH]c3c(C(N)=O)cc(-c4csc(CN5CCCC5)n4)cc23)CC1 [Example 353, 3-[1-(ethylsulfonyl)-4-piperidinyl]-5-[2-(1-pyrrolidinylmethyl)-1,3-thiazol-4-yl]-1H-indole-7-carboxamide] | ≤ 10 µM | ≤ 1.5 µM | 0 to 60%
2 | CCS(=O)(=O)N1CCC(c2c[nH]c3c(C(N)=O)cc(-c4cc(CNCC(C)(C)C)ccc4F)cc23)CC1 [Example 336, 5-(5-{[(2,2-dimethylpropyl)amino]methyl}-2-fluorophenyl)-3-[1-(ethylsulfonyl)-4-piperidinyl]-1H-indole-7-carboxamide trifluoroacetate] | ≤ 10 µM | ≤ 1.5 µM | –
3 | CCS(=O)(=O)N1CCC(c2c[nH]c3c(C(N)=O)cc(-c4ccc(CN5CCOCC5)cc4)cc23)CC1 [Example 29, 3-[1-(ethylsulfonyl)-4-piperidinyl]-5-[4-(4-morpholinylmethyl)phenyl]-1H-indole-7-carboxamide] | ≤ 10 µM | ≤ 1.5 µM | –
4 | CCS(=O)(=O)N1CCC(c2c[nH]c3c(C(N)=O)cc(-c4cnn(CCNCC(C)C)c4)cc23)CC1 [Example 260, 3-[1-(ethylsulfonyl)-4-piperidinyl]-5-(1-{2-[(2-methylpropyl)amino]ethyl}-1H-pyrazol-4-yl)-1H-indole-7-carboxamide trifluoroacetate] | ≤ 10 µM | > 1 µM | –
5 | CCS(=O)(=O)N1CCC(c2c[nH]c3c(C(N)=O)cc(-c4cccc(CN5CCCCC5)c4)cc23)CC1 [Example 1, 3-[1-(ethylsulfonyl)-4-piperidinyl]-5-[3-(1-piperidinylmethyl)phenyl]-1H-indole-7-carboxamide] | ≤ 10 µM | ≤ 1.5 µM | –
6 | CCS(=O)(=O)N1CCC(c2c[nH]c3c(C(N)=O)cc(-c4cccc(CNCc5ccc(O)c(O)c5)c4)cc23)CC1 [Example 16, 5-[3-({[(3,4-dihydroxyphenyl)methyl]amino}methyl)phenyl]-3-[1-(ethylsulfonyl)-4-piperidinyl]-1H-indole-7-carboxamide] | ≤ 10 µM | ≤ 1.5 µM | –
7 | CCS(=O)(=O)N1CCC(c2c[nH]c3c(C(N)=O)cc(-c4csc(CN5CCCC5c5cccnc5)c4)cc23)CC1 (centres unmarked) [Example 90, 3-[1-(ethylsulfonyl)-4-piperidinyl]-5-(5-{[2-(3-pyridinyl)-1-pyrrolidinyl]methyl}-3-thienyl)-1H-indole-7-carboxamide] | ≤ 10 µM | – | 0 to 60%
8 | CCS(=O)(=O)N1CCC(c2c[nH]c3c(C(N)=O)cc(-c4cc(CN5CCOCC5)ccc4F)cc23)CC1 [Example 341, 3-[1-(ethylsulfonyl)-4-piperidinyl]-5-[2-fluoro-5-(4-morpholinylmethyl)phenyl]-1H-indole-7-carboxamide trifluoroacetate] | ≤ 10 µM | > 1 µM | –
9 | CCS(=O)(=O)N1CCC(c2c[nH]c3c(C(N)=O)cc(-c4cccc(C5CNCCN5)c4)cc23)CC1 (centres unmarked) [Example 300, 3-[1-(ethylsulfonyl)-4-piperidinyl]-5-[3-(2-piperazinyl)phenyl]-1H-indole-7-carboxamide trifluoroacetate] | ≤ 10 µM | > 1 µM | –
10 | CCS(=O)(=O)N1CCC(c2c[nH]c3c(C(N)=O)cc(-c4csc(CNC5CCC5)c4)cc23)CC1 [Example 110, 5-{5-[(cyclobutylamino)methyl]-3-thienyl}-3-[1-(ethylsulfonyl)-4-piperidinyl]-1H-indole-7-carboxamide trifluoroacetate] | ≤ 10 µM | ≤ 1.5 µM | –
11 | CCS(=O)(=O)N1CCC(c2c[nH]c3c(C(N)=O)cc(-c4cc(CNCCC#N)ccc4F)cc23)CC1 [Example 35, 5-(5-{[(2-cyanoethyl)amino]methyl}-2-fluorophenyl)-3-[1-(ethylsulfonyl)-4-piperidinyl]-1H-indole-7-carboxamide trifluoroacetate] | ≤ 10 µM | > 1 µM | –
12 | CCS(=O)(=O)N1CCC(c2c[nH]c3c(C(N)=O)cc(-c4ccc(CNOC)cc4)cc23)CC1 [Example 390, 3-[1-(ethylsulfonyl)-4-piperidinyl]-5-(4-{[(methyloxy)amino]methyl}phenyl)-1H-indole-7-carboxamide] | ≤ 10 µM | > 1 µM | –
13 | CCS(=O)(=O)N1CCC(c2c[nH]c3c(C(N)=O)cc(-c4cncc(CN5CCOCC5)c4)cc23)CC1 [Example 176, 3-[1-(ethylsulfonyl)-4-piperidinyl]-5-[5-(4-morpholinylmethyl)-3-pyridinyl]-1H-indole-7-carboxamide] | ≤ 10 µM | – | 0 to 60%
14 | CCS(=O)(=O)N1CCC(c2c[nH]c3c(C(N)=O)cc(-c4cc(F)cc(CNCCCOC)c4)cc23)CC1 [Example 327, 3-[1-(ethylsulfonyl)-4-piperidinyl]-5-[3-fluoro-5-({[3-(methyloxy)propyl]amino}methyl)phenyl]-1H-indole-7-carboxamide trifluoroacetate] | ≤ 10 µM | ≤ 1.5 µM | –
15 | CCS(=O)(=O)N1CCC(c2c[nH]c3c(C(N)=O)cc(-c4ccc(CNC(CO)CO)cc4)cc23)CC1 [Example 153, 3-[1-(ethylsulfonyl)-4-piperidinyl]-5-[4-({[2-hydroxy-1-(hydroxymethyl)ethyl]amino}methyl)phenyl]-1H-indole-7-carboxamide trifluoroacetate] | ≤ 10 µM | > 1 µM | –
16 | CCS(=O)(=O)N1CCC(c2c[nH]c3c(C(N)=O)cc(-c4cccc(C(C)NC5CCC5)c4)cc23)CC1 (centres unmarked) [Example 295, 5-{3-[1-(cyclobutylamino)ethyl]phenyl}-3-[1-(ethylsulfonyl)-4-piperidinyl]-1H-indole-7-carboxamide trifluoroacetate] | ≤ 10 µM | ≤ 1.5 µM | –
17 | CCS(=O)(=O)N1CCC(c2c[nH]c3c(C(N)=O)cc(-c4cccc(CN(C)C)c4)cc23)CC1 [Example 64, 5-{3-[(dimethylamino)methyl]phenyl}-3-[1-(ethylsulfonyl)-4-piperidinyl]-1H-indole-7-carboxamide] | ≤ 10 µM | ≤ 1.5 µM | –
18 | CCS(=O)(=O)N1CCC(c2c[nH]c3c(C(N)=O)cc(-c4cc(CN[C@H](C)C(C)C)ccc4F)cc23)CC1 [Example 338, 5-[5-({[(1R)-1,2-dimethylpropyl]amino}methyl)-2-fluorophenyl]-3-[1-(ethylsulfonyl)-4-piperidinyl]-1H-indole-7-carboxamide trifluoroacetate] | ≤ 10 µM | > 1 µM | –
19 | CCCNCc1ccc(F)c(-c2cc(C(N)=O)c3[nH]cc(C4CCN(S(=O)(=O)CC)CC4)c3c2)c1 [Example 334, 3-[1-(ethylsulfonyl)-4-piperidinyl]-5-{2-fluoro-5-[(propylamino)methyl]phenyl}-1H-indole-7-carboxamide trifluoroacetate] | ≤ 10 µM | ≤ 1.5 µM | –
20 | CCS(=O)(=O)N1CCC(c2c[nH]c3c(C(N)=O)cc(-c4cccc(CNC(=O)c5ccco5)c4)cc23)CC1 [Example 361, 3-[1-(ethylsulfonyl)-4-piperidinyl]-5-(3-{[(2-furanylcarbonyl)amino]methyl}phenyl)-1H-indole-7-carboxamide trifluoroacetate] | ≤ 10 µM | ≤ 1.5 µM | –
21 | CCC(C)CNCc1ccc(-c2cc(C(N)=O)c3[nH]cc(C4CCN(S(=O)(=O)CC)CC4)c3c2)s1 (centres unmarked) [Example 182, 3-[1-(ethylsulfonyl)-4-piperidinyl]-5-(5-{[(2-methylbutyl)amino]methyl}-2-thienyl)-1H-indole-7-carboxamide] | ≤ 10 µM | ≤ 1.5 µM | –
22 | CCS(=O)(=O)N1CCC(c2c[nH]c3c(C(N)=O)cc(-c4cccc(CN(C)CC(N)=O)c4)cc23)CC1 [Example 39, 5-(3-{[(2-amino-2-oxoethyl)(methyl)amino]methyl}phenyl)-3-[1-(ethylsulfonyl)-4-piperidinyl]-1H-indole-7-carboxamide trifluoroacetate] | ≤ 10 µM | – | 0 to 60%
23 | CCS(=O)(=O)N1CCC(c2c[nH]c3c(C(N)=O)cc(-c4csc(CN5CCC[C@H]5COC)c4)cc23)CC1 [Example 95, 3-[1-(ethylsulfonyl)-4-piperidinyl]-5-[5-({(2S)-2-[(methyloxy)methyl]-1-pyrrolidinyl}methyl)-3-thienyl]-1H-indole-7-carboxamide] | ≤ 10 µM | ≤ 1.5 µM | –

Reference: patent publication US8063071B2 (GlaxoSmithKline, LLC, priority 2007, dated 2011)
